Test results taken from patent US20250304540A1, “2-METHYL-2-THIAZOLINE SALT” (Myrodia Therapeutics Co., Ltd., priority 2022, published 2025).
Structures can show the parent of a compound that is named as a salt.

Columns and labels:
Format in all cases: physicochemical
[1] = Solubility in phosphate buffered saline by visual observation; conditions: aqueous buffer, thermodynamic from solid, phosphate buffered saline (PBS pH 7.2-7.4), room temperature
Protocol: When 2-MT-NDSA salt (20 mg) was added to phosphate buffered saline (PBS pH 7.2-7.4, FUJIFILM Wako Pure Chemical Corporation 164-18541, 1 mL) at room temperature, the salt was dissolved easily. The 2-MT-NDSA salt was further added by […] to the solution. By visual observation to confirm dissolution, undissolved remainder was confirmed when the total amount reached 200 mg. Thus, the solubility under the present conditions was 100 mg/mL to 200 mg/mL.

[2] = Stability in the solid state at 40° C., checked by 1H NMR; conditions: vial, heated to 40° C., left standing for three days
Protocol: 2-MT-NDSA salt was placed in a vial, heated to 40° C., and left standing for three days. […] Thus, it can be said that 2-MT·NDSA salt is stable in the solid state at 40° C. for 3 days (corresponding to 2 weeks at 25° C.).

[3] = Deliquescence by visual observation; conditions: relative humidity of about 75%, 25° C., 23 hr
Protocol: A petri dish containing 2-MT-NDSA salt was placed in a relative humidity of about 75%, and left standing in a thermostatic tank at 25° C. for 23 hr.

[4] = Humidity stress test with XRPD analysis; conditions: unsealed vial, 7 days
Protocol: XRPD analyses were performed using a Panalytical Empyrean diffractometer equipped with a Cu X-ray tube and a PIXcel 1D-Medipix3 detector system. The samples were analyzed at ambient temperature in transmission mode and held between low density PVC films. The XRPD program was used (range 3-40° […], step size 0.013°, counting time 99 sec, about 22 min run time/counting time 49 sec, about 11 min run time/counting time 22 sec, about 5 min run time). Samples were spun at 60 rpm during data collection. XRPD patterns were sorted and manipulated using HighScore Plus 2.2c/v4.9 software.
A given amount of salt was charged into a vial and placed unsealed in a thermostatic tank at 40° C./75% relative humidity or ambient temperature for 7 days and XRPD analysis was performed.

CC1=NCCS1 [2-MT-NDSA salt, monohydrate of a hemi-1,5-naphthalenedisulfonic acid salt of 2-methyl-2-thiazoline]
solubility [1]: 100 to 200 mg/mL | stability in the solid state (1H NMR before and after) [2]: no change in the peaks was observed | deliquescence [3]: No deliquescence | physical stability post storage (XRPD) ([4]; 40° C./75% relative humidity): physically stable | physical stability post storage (XRPD) ([4]; ambient temperature): physically stable
